For data set [1], the target named is T1, Cytochrome P450 2B6 (Homo sapiens, UniProt P20813).
T1 sequence (P20813 whole entry): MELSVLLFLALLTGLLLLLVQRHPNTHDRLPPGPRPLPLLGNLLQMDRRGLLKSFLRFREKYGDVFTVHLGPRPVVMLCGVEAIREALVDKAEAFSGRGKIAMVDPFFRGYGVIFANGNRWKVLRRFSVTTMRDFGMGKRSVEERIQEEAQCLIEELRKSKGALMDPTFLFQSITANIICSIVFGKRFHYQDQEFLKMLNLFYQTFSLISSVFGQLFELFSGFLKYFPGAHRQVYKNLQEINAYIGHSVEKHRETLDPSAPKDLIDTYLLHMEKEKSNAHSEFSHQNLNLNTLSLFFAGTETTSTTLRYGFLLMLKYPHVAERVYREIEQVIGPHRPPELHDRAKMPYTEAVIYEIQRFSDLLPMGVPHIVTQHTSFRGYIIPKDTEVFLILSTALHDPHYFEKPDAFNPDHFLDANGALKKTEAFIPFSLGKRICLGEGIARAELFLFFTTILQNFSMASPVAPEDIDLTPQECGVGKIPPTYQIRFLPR
As to the kind of experiment: Drug metabolism assessed as CYP2B6 (unknown origin)-mediated d4-BuOH metabolite formation by measuring Kcat. Type of data set: ADME.

Data set [2] has as its target T1, Cytochrome P450 2B6. Description: Binding affinity to recombinant CYP2B6 (unknown origin) assessed as spectral dissociation constant-1. The note with it: read-out: Ks.
For data set [3], the target named is T1, Cytochrome P450 2B6. Description: Drug metabolism assessed as CYP2B6 (unknown origin)-mediated d4-BuOH metabolite formation by measuring km. Type of data set: ADME.
In data set [4] the target is T1, Cytochrome P450 2B6. As to the kind of experiment: Drug metabolism assessed as CYP2B6 (unknown origin)-mediated metabolite formation by measuring Kcat. Type of data set: ADME.
Data set [5] addresses T1, Cytochrome P450 2B6. Description: Drug metabolism assessed as CYP2B6 (unknown origin)-mediated metabolite formation by measuring km. Type of data set: ADME.
Data set [6] has as its target T1, Cytochrome P450 2B6. Description: Drug metabolism assessed as CYP2B6 (unknown origin)-mediated d9-BuOH metabolite formation by measuring km. Format: ADME.
Data set [7] deals with T1, Cytochrome P450 2B6. Description: Binding affinity to recombinant CYP2B6 (unknown origin) assessed as spectral dissociation constant-2. Particulars: read-out: Ks.
The target in data set [8] is T1, Cytochrome P450 2B6. Description: Drug metabolism assessed as CYP2B6 (unknown origin)-mediated d9-BuOH metabolite formation by measuring Kcat. Type of data set: ADME.

Molecules are shown by their SMILES. pKd: −log10 of the molar value.

For orientation: Km means the concentration of substrate that gives half-maximal velocity. With `[2H]C([2H])([2H])[C@@]([2H])(NC(C)(C)C)C(=O)c1cccc(Cl)c1`, the Kcat in data set [1] is 0.061 s⁻¹. The pKd in data set [2] was 1.95. Further, the Km in data set [3] came out at 266 µM.

`CC(NC(C)(C)C)C(=O)c1cccc(Cl)c1` (racemic) [BUPROPION]: the Kcat in data set [4] was 0.14 s⁻¹. For the same compound, the Km in data set [5] amounted to 94.7 µM. The pKd in data set [2] is 3.50.

Consider `[2H]C([2H])([2H])[C@]([2H])(NC(C)(C)C)C(=O)c1cccc(Cl)c1`, for which, in data set [1], the Kcat stood at 0.05578 s⁻¹. Moreover, the pKd in data set [2] is 2.54. In addition, the Km in data set [3] was 131 µM.

As for `[2H]C([2H])([2H])C(N[C@@]([2H])(C)C(=O)c1cccc(Cl)c1)(C([2H])([2H])[2H])C([2H])([2H])[2H]`, the Km in data set [6] was determined as 279 µM. Further, the results for the pKd in data set [7] and in data set [2] were 2.94 and 4.99, respectively. Moreover, in data set [8], the Kcat was determined as 0.02462 s⁻¹.

On to `[2H]C([2H])([2H])C(N[C@]([2H])(C)C(=O)c1cccc(Cl)c1)(C([2H])([2H])[2H])C([2H])([2H])[2H]`, for which the Km in data set [6] amounted to 264 µM. For the same compound, the pKd in data set [7] was 2.93; in data set [2], 5.41. In addition, the Kcat in data set [8] was 0.003865 s⁻¹.

(Values after ChEMBL document CHEMBL5214950 (Bioorg Med Chem Lett, 2022).)
